# Measured values taken from patent US20030091533A1, “Regulation of mononuclear phagocyte stimulation” (priority 2001, published 2003).
# Experiments:
# Assay type in all cases: cell-based, human
# LPS-stimulated AM [1] = test: IL-8 release by ELISA, AM; settings: preincubated 24 hour, LPS 20 hour
# Procedure: PBM and AM obtained as described infra (1×10^6 PBM, 0.5×10^6 AM) were preincubated for 24 hour with cytokines, IL-4, IL-9 (20 ng/ml) and IFN-γ (200 U/ml) before the stimulation by LPS (1 μg/ml) for 20 h. Supernatants were harvested and frozen at −20° C. until cytokine titration. TNF-α release was determined in supernatants by a cytotoxic bioassay using WEHI 164 clone 13 target cells (Espevik and Nissen-Meyer, J. Immunol. Methods, 95:99-105 (1986) (incorporated herein by reference)), while IL-8 was quantitated in the same supernatants by ELISA. FIG. 5 depicts the effects of IL-9, IL-4, and IFN-γ on the release of TNFα (A) and IL-8 (B) by LPS-stimulated PBM and AM. […]
# (§1) Cells (1×10^6 PBM or 0.5×10^6 AM/well) were distributed in 24-well plates (Falcon), preincubated in cRPMI for 24 hours at 37° C., 5% CO2 with cytokines (IL-9, IL-4 (20 ng/ml) and IFN-γ (200 U/ml)) and stimulated for 20 hours with 1 μg/ml LPS without removing cytokines. […] Release of TNF-α was quantified by a cytotoxicity bioassay using WEHI 164 cells clone 13, as previously described (Espevik and Nissen-Meyer, J. Immunol. Methods, 95:99-105 (1986) incorporated herein by reference), using rhTNF-α from Boehringer as a standard. IL-8, IL-10 and TGF-β1 concentrations were determined by ELISA. A kit from CLB (Amsterdam, The Netherlands) was used for IL-10 quantitation, following the manufacturer's protocol. […]
# ERK½ = ERK½ MAP kinase phosphorylation immunoblot in PBM; settings: pretreatment before LPS 1 μg/ml; IL-9 20 ng/ml 24 hour; PD98059 1 hour
# Procedure: PBM, isolated as described infra, were treated with 100 !M PD98059 (or with the same volume of DMSO as control) 1 hour before preincubation for 24 hour with medium or IL-9 (20 ng/ml). For the phosphoERK immunoblot assay (A), PBM were then stimulated by LPS (1 μg/ml) for the indicated periods of time (5 min to 20 hours) as compared to unstimulated cells (med), and processed for the detection of phosphorylated and total ERK½ as described in infra. For the oxidative burst (B), PBM were stimulated by LPS (1 μg/ml) for 20 hour and their oxidative capacity was evaluated through DCFH oxidation The results are presented in FIG. 7.
# PBM were preincubated for 24 hour with medium alone (med) or IL-9, IL-4 or TGF-β1 (20 ng/ml), and stimulated by LPS (1 μg/ml) for the indicated periods of time (30 to 240 min). […]
# PBM (1×10^6) were preincubated for 24 hour with medium alone or with cytokines (IL-9, IL-4 or TGF-β1 at 20 ng/ml) and stimulated from 5 min to 20 hour by 1 μg/ml LPS. […] Cell extracts (10 μg, as determined by the bicinchoninic acid-based assay) were subjected to SDS-12%PAGE, and electrotransferred onto a nitrocellulose membrane (Amersham) immunoblotted to detect and compare phosphorylated (threonine^202/tyrosine^204 residues) and total ERK½, using specific antibodies and enhanced chemiluminescence (New England Biolabs). […]
# LPS-stimulated AM [2] = test: IL-10 release by ELISA, AM; settings: preincubated 24 hour, LPS 20 h
# Procedure: FIG. 6 depicts the effect of IL-9, IL-4 and IFN-γ on the release of IL-10 (A) and TGF-β1 (B) by LPS-stimulated PBM and AM cultured under the same conditions as described in FIG. 5 Example I. D. TGF-β1 was determined by ELISA in crude supernatants (untreated supernatants) and in ethanol-acid (acid-treated) supernatants, using a kit from Biosource for determining TGF-β1 release from its latent complexes. An ELISA kit from CLB (Amsterdam, The Netherlands) was used to determine IL-10 following the manufacturer's protocol. […] Data are means±SEM (n=3). *P<0.05 compared with unstimulated cells; **P<0.05 compared with cells preincubated with medium.
# as §1
Molecule,effect on IL-8 release by LPS-stimulated AM (LPS-stimulated AM [1]),LPS-induced ERK½ phosphorylation in PBM (ERK½),IL-10 release by LPS-stimulated AM (LPS-stimulated AM [2])
IL-9: Human IL-9 purified from SF9 insect cell cultures infected with recombinant baculovirus,no significant modulation,strongly down regulates,–
"IFN-γ: Interferon gamma, primes mononuclear phagocytes, 200 U/ml (protein, UniProt P01579 24-161, looked up) Interferon gamma: QDPYVKEAENLKKYFNAGHSDVADNGTLFLGILKNWKEESDRKIMQSQIVSFYFKLFKNFKDDQSIQKSVETIKEDMNVKFFNSNKKKRDDFEKLTNYSVTDLNVQRKAIHELIQVMAELSPAAKTGKRKRSQMLFRG",no significant modulation,–,decreased
